Measured values: paper PMC5515969, “Effects of 31 FDA approved small-molecule kinase inhibitors on isolated rat liver mitochondria” (Archives of Toxicology, 2016)
Read-outs that look alike come from different tables or passages of the source.

Key:
[1] = test system: isolated rat liver mitochondria; experiment: Mitochondrial oxygen consumption (glutamate/malate or succinate driven, state 4 and state 3); assay type: biochemical; details: for Glutamate/malate driven respiration State 3 / Glutamate/malate driven respiration State 4 / Succinate-driven respiration State 3 / Succinate-driven respiration State 4: oxygen consumption, DMSO-treated = 1; as to State 3 respiration driven by succinate at 10XCmax: key: 0 indicates that the drug had no effects (negative); as to State 3 respiration driven by succinate at 1XCmax: key: 0 indicates that the drug had no effects (negative)
Method in brief: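 Oxygen uptake on glutamate/malate or on succinate defined state 4; ADP added 3 min later gave state 3. Mitochondria isolated from rat liver by differential centrifugation, adjusted to 1 mg/ml and pretreated 5 min with inhibitor (0.1% DMSO final). Values relative to DMSO control, set to 1.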

RCC I = RCC I activity in submitochondrial particles; assay type: biochemical, rat; parameters: key to RCC I at 10XCmax / RCC I at 100XCmax / RCC I at 50XCmax / RCC I at 30XCmax / RCC I at 20XCmax: activity relative to DMSO-treated controls (control set as 1 = 100%); details: for RCC activity I: 15 min
Method in brief: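 Kinase inhibitors were preincubated 15 min with submitochondrial particles (1 mg/ml) before complex activities were measured. RCC I was the rotenone-sensitive portion (activity without minus with rotenone). RCC I/V was read at 340 nm and RCC II at 600 nm every 1 min for 6 min. RCC III and IV were read at 550 nm every 10 s for 2 min. Activities are normalized to DMSO controls set as 1.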

RCC III = RCC III activity in submitochondrial particles; assay type: biochemical, rat; details: 15 min, DMSO-treated = 100
Method in brief: (§1)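 Absorbance kinetics: A340 (RCC I, V) and A600 (RCC II) read each minute over 6 min, A550 (RCC III, IV) every 10 s over 2 min; RCC I taken as […]. Particles (1 mg/ml) pretreated 15 min with compound; DMSO-treated activity = 1.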

RCC IV = RCC IV activity in submitochondrial particles; assay type: biochemical, rat; details: 15 min, DMSO-treated = 100
Method in brief: as §1

RCC V = RCC V activity in submitochondrial particles; assay type: biochemical, rat; details: for RCC activity V: 15 min, DMSO-treated = 100; as to RCC V at 5XCmax: key: 0 indicates that the drug had no effects (negative)
Method in brief: as §1

[2] = test system: isolated rat liver mitochondria; experiment: Mitochondrial inner membrane potential (MMP), Rhodamine 123; assay type: biochemical
Description: Fig. 3 KI effects on mitochondrial inner membrane potential (MMP). […] In a, c, data are means and standard derivations from three separate experiments. *p < 0.05 as compared to DMSO-treated samples at the end of experiments. In b, data are means of two independent experiments

[3] = test system: isolated rat liver mitochondria; experiment: Mitochondrial swelling (absorbance at 535 nm); assay type: biochemical; as to Swelling 5XCmax: key: 0 indicates that the drug had no effects (negative)
RCC I–V = experiment: Activities of RCC I–V, overall statements; assay type: biochemical, rat; details: submitochondrial particles
Method: KIs were incubated with submitochondrial particles (1 mg/ml) for 15 min and then RCC I–V activities measured. […] The activities of DMSO-treated samples (controls) were set as 1. […] The difference between the activity from rotenone-containing buffer and rotenone-absent buffer was considered as RCC I activity. […] For measuring RCC I/V and II activity, the changes in absorbance at 340 and 600 nm, respectively, were determined every 1 min for 6 min. For measuring RCC III and RCC IV, the changes in absorbance at 550 nm were measured every 10 s for 2 min.

[4] = test system: isolated rat liver mitochondria; experiment: Mitochondrial toxicity, any endpoint, intact mitochondria and submitochondrial particles; assay type: biochemical; details: any endpoint
Method in brief: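 Rat liver mitochondria isolated by differential centrifugation in sucrose/Tris-MOPS/EGTA buffer pH 7.4, adjusted to 1 mg/ml protein before treatment. Kinase inhibitors added at 1:1000 dilution of stock; final DMSO 0.1%, with 0.1% DMSO controls.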

[5] = cited from earlier work
[6] = ref FDA product labeling, cited from earlier work
[7] = test system: isolated rat liver mitochondria; experiment: Mitochondrial ROS production (CM-H2DCFDA)
RCC II = target: T1, RCC II (Rattus norvegicus, UniProt P21913+Q641Z9+Q6PCT8+Q920L2); experiment: RCC II activity in submitochondrial particles; assay type: biochemical; parameters: key: activity relative to DMSO-treated controls (control set as 1 = 100%); details: DMSO treated samples set as 1
T1 construct: Submitochondrial particles were prepared by subjecting the intact mitochondria to three successive freeze–thaw cycles; from tissue; host or cells: rat liver mitochondria, used as submitochondrial particles
Method in brief: as §1

[8] = Solubility of DMSO stock for 100X/50X Cmax testing; assay type: physicochemical; details: solubility in DMSO
Description: Supplement 204_2016_1918_MOESM3_ESM.xlsx, sheet "Sheet1" | column: 100 Cmax; 50 Cmax; note

[9] = test system: isolated rat liver mitochondria; details: positive control alamethicin treated samples
[10] = up to 100-fold Cmax or highest testable concentration
[11] = human therapeutic Cmax at FDA recommended dosages, ref product labeling and drug approval packages at the official FDA website
[12] = 1XCmax, DMSO treated samples set as 1
[13] = 2.5XCmax, DMSO treated samples set as 1
[14] = 5XCmax, DMSO treated samples set as 1
[15] = 10XCmax, DMSO treated samples set as 1
[16] = 20XCmax, DMSO treated samples set as 1
[17] = 1XCmax, difference in signal between KI and DMSO treated samples at the end of experiments
[18] = 2.5XCmax, difference in signal between KI and DMSO treated samples at the end of experiments
[19] = 5XCmax, difference in signal between KI and DMSO treated samples at the end of experiments
[20] = 10XCmax, difference in signal between KI and DMSO treated samples at the end of experiments
[21] = 20XCmax, difference in signal between KI and DMSO treated samples at the end of experiments

T1 sequence (Q920L2 35-656): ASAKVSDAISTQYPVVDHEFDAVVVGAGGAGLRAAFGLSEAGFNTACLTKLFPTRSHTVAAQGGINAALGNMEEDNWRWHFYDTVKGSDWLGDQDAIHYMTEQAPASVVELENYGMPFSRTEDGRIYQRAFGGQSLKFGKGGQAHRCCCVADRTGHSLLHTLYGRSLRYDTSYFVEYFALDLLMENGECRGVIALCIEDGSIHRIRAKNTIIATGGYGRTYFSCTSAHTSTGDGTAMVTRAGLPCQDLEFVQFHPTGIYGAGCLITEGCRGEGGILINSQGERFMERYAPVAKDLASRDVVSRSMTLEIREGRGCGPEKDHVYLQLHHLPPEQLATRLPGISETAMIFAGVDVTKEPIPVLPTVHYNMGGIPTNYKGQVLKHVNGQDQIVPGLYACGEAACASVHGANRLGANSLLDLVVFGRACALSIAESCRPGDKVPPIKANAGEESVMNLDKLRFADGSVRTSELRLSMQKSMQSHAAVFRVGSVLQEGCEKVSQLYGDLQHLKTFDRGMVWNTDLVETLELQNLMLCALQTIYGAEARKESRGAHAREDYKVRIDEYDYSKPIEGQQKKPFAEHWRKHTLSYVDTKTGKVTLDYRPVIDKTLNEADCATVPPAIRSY
T1 sequence (P21913 31-282): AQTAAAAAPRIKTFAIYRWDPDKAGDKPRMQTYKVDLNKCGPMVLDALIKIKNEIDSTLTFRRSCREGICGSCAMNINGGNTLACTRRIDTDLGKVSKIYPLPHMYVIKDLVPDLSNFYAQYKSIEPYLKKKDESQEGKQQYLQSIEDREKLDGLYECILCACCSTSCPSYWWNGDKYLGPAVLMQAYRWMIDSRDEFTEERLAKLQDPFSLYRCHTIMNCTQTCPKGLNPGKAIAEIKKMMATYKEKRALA
T1 sequence (Q641Z9 1-169): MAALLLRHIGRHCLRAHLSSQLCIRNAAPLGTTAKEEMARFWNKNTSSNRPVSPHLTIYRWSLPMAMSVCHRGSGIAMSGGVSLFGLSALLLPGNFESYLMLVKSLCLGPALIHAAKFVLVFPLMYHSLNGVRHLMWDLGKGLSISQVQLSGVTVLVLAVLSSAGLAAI
T1 sequence (Q6PCT8 57-159): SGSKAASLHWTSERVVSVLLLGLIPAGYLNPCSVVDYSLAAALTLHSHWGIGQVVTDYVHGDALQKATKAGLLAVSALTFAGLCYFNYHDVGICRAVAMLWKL

CNC(=O)c1cc(Oc2ccc(NC(=O)Nc3ccc(Cl)c(C(F)(F)F)c3)cc2)ccn1 [Sorafenib]
Glutamate/malate driven respiration State 3 ([1]; 1-fold Cmax): 1.15 ± 0.09 | Glutamate/malate driven respiration State 4 ([1]; 1-fold Cmax): 2.55 ± 0.27 | Succinate-driven respiration State 3 ([1]; 1-fold Cmax): 1.00 ± 0.10 | Succinate-driven respiration State 4 ([1]; 1-fold Cmax): 1.50 ± 0.21 | Glutamate/malate driven respiration State 3 ([1]; 2.5-fold Cmax): 1.57 ± 0.06 | Glutamate/malate driven respiration State 4 ([1]; 2.5-fold Cmax): 4.92 ± 0.09 | Succinate-driven respiration State 3 ([1]; 2.5-fold Cmax): 0.62 ± 0.05 | Succinate-driven respiration State 4 ([1]; 2.5-fold Cmax): 1.43 ± 0.06 | Glutamate/malate driven respiration State 4 ([1]; 5-fold Cmax): 3.69 ± 0.12 | Succinate-driven respiration State 3 ([1]; 5-fold Cmax): 0.40 ± 0.01 | Succinate-driven respiration State 4 ([1]; 5-fold Cmax): 1.03 ± 0.08 | Glutamate/malate driven respiration State 3 ([1]; 10-fold Cmax): 0.93 ± 0.34 | Glutamate/malate driven respiration State 4 ([1]; 10-fold Cmax): 5.00 ± 1.92 | Succinate-driven respiration State 3 ([1]; 10-fold Cmax): 1.03 ± 0.19 | Succinate-driven respiration State 4 ([1]; 10-fold Cmax): 3.34 ± 0.45 | effect on state 4 respiration ([1]; highest tested concentrations): significant increases | lowest concentration significantly affecting mitochondrial oxygen consumption ([1]; tested at 1 to 100-fold Cmax): equal to Cmax | RCC activity I (RCC I; 5-fold Cmax, DMSO-treated = 100): 87.23 ± 10.61 % of control | RCC activity I (RCC I; 10-fold Cmax, DMSO-treated = 100): 85.45 ± 11.93 % of control | RCC activity III (RCC III; 5-fold Cmax): 97.60 ± 5.50 % of control | RCC activity III (RCC III; 10-fold Cmax): 94.31 ± 7.47 % of control | RCC activity IV (RCC IV; 5-fold Cmax): 101.55 ± 3.61 % of control | RCC activity IV (RCC IV; 10-fold Cmax): 107.65 ± 10.77 % of control | RCC activity V (RCC V; 10-fold Cmax): 65.55 ± 6.34 % of control | lowest concentration decreasing MMP [2]: onefold | effect on MMP [2, 10]: decrease in MMP | lowest concentration causing mitochondrial swelling [3]: 2.5 fold Cmax | effect on mitochondrial swelling ([3]; up to 100-fold Cmax or highest testable concentration, 25 µM calcium chloride): significant mitochondrial swelling | lowest concentration inhibiting RCCs (RCC I–V): fivefold | RCCs inhibited (RCC I–V; [10]): RCC V | lowest concentration causing significant mitochondrial toxicity [4]: equal to the Cmax | Cmax [5, 11]: 4.3 µM | labeling for DILI ([6]; W&P warnings and precautions, BBW black box warnings): W&P: fatal DILI | DILI potential (based on labeling) [6]: 1 | effect on ROS production ([7]; highest tested concentrations): neither of them affected ROS production

CCc1cc2c(cc1N1CCC(N3CCOCC3)CC1)C(C)(C)c1[nH]c3cc(C#N)ccc3c1C2=O [Alectinib]
State 3 respiration driven by succinate at 1XCmax [1, 12]: 0 | State 4 respiration driven by succinate at 1XCmax [1, 12]: 0 | State 3 respiration driven by succinate at 2.5XCmax [1, 13]: 0 | State 4 respiration driven by succinate at 2.5XCmax [1, 13]: 0 | State 3 respiration driven by succinate at 5XCmax [1, 14]: 0 | State 4 respiration driven by succinate at 5XCmax [1, 14]: 0 | State 3 respiration driven by succinate at 10XCmax [1, 15]: 0 | State 4 respiration driven by succinate at 10XCmax [1, 15]: 0 | State 3 respiration driven by succinate at 20XCmax [1, 16]: 0 | State 4 respiration driven by succinate at 20XCmax [1, 16]: 0 | RCC I at 10XCmax (RCC I; [15]): 0 | RCC activity I (RCC I; 20-fold Cmax, DMSO-treated = 100): 89.39 ± 2.98 % of control | RCC I at 20XCmax (RCC I; 20XCmax, DMSO-treated = 100): 89.39±2.98 | RCC II at 1.0XCmax (RCC II; 1.0XCmax): 0 | RCC II at 2.5XCmax (RCC II; 2.5XCmax): 0 | RCC II at 5XCmax (RCC II; 5XCmax): 0 | RCC II at 10XCmax (RCC II; 10XCmax): 0 | RCC II at 20XCmax (RCC II; 20XCmax): 0 | RCC activity III (RCC III; 20-fold Cmax): 116.05 ± 4.72 % of control | RCC activity IV (RCC IV; 20-fold Cmax): 101.46 ± 1.66 % of control | RCC V at 5XCmax (RCC V; [14]): 0 | RCC activity V (RCC V; 20-fold Cmax): 106.30 ± 11.74 % of control | MMP measured by Rhodamine 123 at 1XCmax [2, 17]: 0 | MMP measured by Rhodamine 123 at 2.5XCmax [2, 18]: 0 | MMP measured by Rhodamine 123 at 5XCmax [2, 19]: 0 | MMP measured by Rhodamine 123 at 10XCmax [2, 20]: 0 | MMP measured by Rhodamine 123 at 20XCmax [2, 21]: 0 | Swelling 1XCmax [3, 17]: 0 | Swelling 2.5XCmax [3, 18]: 0 | Swelling 5XCmax [3, 19]: 0 | Swelling 10XCmax [3, 20]: 0 | Swelling 20XCmax [3, 21]: 0 | DMSO stock for 50 Cmax ([8]; stock for 50 Cmax): not soluble | DMSO stock for 100 Cmax ([8]; stock for 100 Cmax): not soluble | Cytochrome c release 1XCmax ([9]; 1XCmax): 0 | Cytochrome c release 2.5XCmax ([9]; 2.5XCmax): 0 | Cytochrome c release 5XCmax ([9]; 5XCmax): 0 | Cytochrome c release 10XCmax ([9]; 10XCmax): 0 | Cytochrome c release 20XCmax ([9]; 20XCmax): 0 | Cmax [5, 11]: 1.37 µM | Cmax (ng or µg/ml) ([5]; human therapeutic maximal blood concentration, ref product labeling): 0.665 µg/mL | Cmax ([5]; read-out: Cmax at µM, human therapeutic maximal blood concentration, ref product labeling): 1.37 µM | ROS measured by CM-H2DCFDA at 1XCmax [7, 12]: 0 | ROS measured by CM-H2DCFDA at 2.5XCmax [7, 13]: 0 | ROS measured by CM-H2DCFDA at 5XCmax [7, 14]: 0 | ROS measured by CM-H2DCFDA at 10XCmax [7, 15]: 0 | ROS measured by CM-H2DCFDA at 20XCmax [7, 16]: 0
